Measurements: patent US20240158446A1, “CYCLIC COMPOUND HAVING SELECTIVE INHIBITORY ACTION ON KRAS OVER HRAS AND NRAS” (CHUGAI SEIYAKU KABUSHIKI KAISHA, priority 2021, published 2024)
pIC50, pKd: −log10 of the molar value.

Tests used:
[1] = biological target: GDP-bound NRAS wild-type protein (Homo sapiens, UniProt P01111); assay: Binding to NRAS by surface plasmon resonance (SPR), Single Cycle Kinetics; details: SPR; GDP-bound NRAS wild-type protein vs GDP-bound KRAS wild-type protein; KD ratio class
[2] = tested on: human lung cancer strain NCI-H441;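 further: cell proliferation inhibition after four days measured by CellTiter-Glo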
[3] = biological target: GDP-bound HRAS wild-type protein (Homo sapiens, UniProt P01112); assay: Binding to HRAS by surface plasmon resonance (SPR), Single Cycle Kinetics; details: SPR; GDP-bound HRAS wild-type protein vs GDP-bound KRAS wild-type protein; KD ratio class
[4] = biological target: GDP-bound KRAS wild-type protein (Homo sapiens, UniProt P01116); assay: Binding to KRAS by surface plasmon resonance (SPR), Single Cycle Kinetics; details: SPR, Single Cycle Kinetics, 1:1 binding model; GDP-bound KRAS wild-type protein; read-out: KRAS KD
Sequence of GDP-bound KRAS wild-type protein (P01116 whole entry): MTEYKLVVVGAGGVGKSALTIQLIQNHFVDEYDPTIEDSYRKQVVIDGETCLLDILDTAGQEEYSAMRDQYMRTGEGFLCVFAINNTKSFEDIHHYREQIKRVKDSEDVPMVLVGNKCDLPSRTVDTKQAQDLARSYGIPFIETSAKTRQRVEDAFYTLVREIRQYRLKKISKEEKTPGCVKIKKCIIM

Sequence of GDP-bound HRAS wild-type protein (P01112 whole entry): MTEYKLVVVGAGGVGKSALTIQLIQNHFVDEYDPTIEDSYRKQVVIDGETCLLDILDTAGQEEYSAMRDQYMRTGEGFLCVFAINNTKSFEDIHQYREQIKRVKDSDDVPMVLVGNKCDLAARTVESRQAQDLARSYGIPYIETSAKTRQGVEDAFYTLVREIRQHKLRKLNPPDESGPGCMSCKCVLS
Sequence of GDP-bound NRAS wild-type protein (P01111 whole entry): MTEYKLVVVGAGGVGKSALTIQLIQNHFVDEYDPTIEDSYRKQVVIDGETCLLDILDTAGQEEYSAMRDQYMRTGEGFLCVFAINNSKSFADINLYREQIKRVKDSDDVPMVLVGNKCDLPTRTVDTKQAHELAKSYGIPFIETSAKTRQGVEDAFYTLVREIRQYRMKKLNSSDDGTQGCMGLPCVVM

Structure (SMILES): CCC[C@H]1C(=O)N[C@@H]([C@@H](C)CC)C(=O)N(C)CC(=O)N(C)[C@H]2C/C=C\CCN(C2=O)[C@@H](Cc2ccc(C(F)(F)F)cc2)C(=O)N(C)CC(=O)N[C@@H](CCc2ccc(C(F)(F)F)c(OC)c2)C(=O)N2C[C@H](OCC)C[C@H]2C(=O)NC2(CCC2)C(=O)N(C)[C@@H](C(CC)CC)C(=O)N(C)[C@H](C(=O)N(C)C)CC(=O)N1C [PP1208]
- NRAS/KRAS (ratio of KD value for NRAS to KD value for KRAS) [1]: AA (a compound having 20 or more is denoted as AA)
- pIC50 [2]: 7.61
- HRAS/KRAS (ratio of KD value for HRAS to KD value for KRAS) [3]: A (a compound having 10 or more and less than 20 is denoted as A)
- pKd [4]: 9.77

Structure (SMILES): CCO[C@@H]1C[C@H]2C(=O)NC3(CCC3)C(=O)N(C)[C@@H](C(CC)CC)C(=O)N(C)[C@H](C(=O)N(C)C)CC(=O)N(C)[C@@H](CC(C)C)C(=O)N[C@@H]([C@@H](C)CC)C(=O)N(C)CC(=O)N(C)[C@H]3C/C=C\CCN(C3=O)[C@@H](Cc3ccc(C(F)(F)F)cc3)C(=O)N(C)CC(=O)N[C@@H](CCc3ccc(C(F)(F)F)c(OC)c3)C(=O)N2C1 [PP1209]
- NRAS/KRAS (ratio of KD value for NRAS to KD value for KRAS) [1]: AA (a compound having 20 or more is denoted as AA)
- pIC50 [2]: 7.80
- HRAS/KRAS (ratio of KD value for HRAS to KD value for KRAS) [3]: A (a compound having 10 or more and less than 20 is denoted as A)
- pKd [4]: 9.66

Structure (SMILES): CCO[C@@H]1C[C@H]2C(=O)NC3(CCC3)C(=O)N(C)[C@@H](C(CC)CC)C(=O)N(C)[C@H](C(=O)N(C)C)CC(=O)N(C)[C@@H](CC3CC3)C(=O)N[C@@H]([C@@H](C)CC)C(=O)N(C)CC(=O)N(C)[C@H]3C/C=C\CCN(C3=O)[C@@H](Cc3ccc(C(F)(F)F)cc3)C(=O)N(C)CC(=O)N[C@@H](CCc3ccc(C(F)(F)F)c(OC)c3)C(=O)N2C1 [PP1211]
- NRAS/KRAS (ratio of KD value for NRAS to KD value for KRAS) [1]: A (a compound having 10 or more and less than 20 is denoted as A)
- pIC50 [2]: 7.57
- HRAS/KRAS (ratio of KD value for HRAS to KD value for KRAS) [3]: B (a compound having 3 or more and less than 10 is denoted as B)
- pKd [4]: 9.57

Structure (SMILES): CCO[C@@H]1C[C@H]2C(=O)NC3(CCC3)C(=O)N(C)[C@@H](C(CC)CC)C(=O)N(C)[C@H](C(=O)N(C)C)CC(=O)N(C)[C@@H](CC3CCCC3)C(=O)N[C@@H]([C@@H](C)CC)C(=O)N(C)CC(=O)N(C)[C@H]3C/C=C\CCN(C3=O)[C@@H](Cc3ccc(C(F)(F)F)cc3)C(=O)N(C)CC(=O)N[C@@H](CCc3ccc(C(F)(F)F)c(OC)c3)C(=O)N2C1 [PP1212]
- NRAS/KRAS (ratio of KD value for NRAS to KD value for KRAS) [1]: AA (a compound having 20 or more is denoted as AA)
- pIC50 [2]: 7.45
- HRAS/KRAS (ratio of KD value for HRAS to KD value for KRAS) [3]: A (a compound having 10 or more and less than 20 is denoted as A)
- pKd [4]: 9.55

Structure (SMILES): CCO[C@@H]1C[C@H]2C(=O)NC3(CCC3)C(=O)N(C)[C@@H](C(CC)CC)C(=O)N(C)[C@H](C(=O)N(C)C)CC(=O)N(C)[C@@H](COC)C(=O)N[C@@H]([C@@H](C)CC)C(=O)N(C)CC(=O)N(C)[C@H]3C/C=C\CCN(C3=O)[C@@H](Cc3ccc(C(F)(F)F)cc3)C(=O)N(C)CC(=O)N[C@@H](CCc3ccc(C(F)(F)F)c(OC)c3)C(=O)N2C1 [PP1213]
- NRAS/KRAS (ratio of KD value for NRAS to KD value for KRAS) [1]: AA (a compound having 20 or more is denoted as AA)
- pIC50 [2]: 7.39
- HRAS/KRAS (ratio of KD value for HRAS to KD value for KRAS) [3]: A (a compound having 10 or more and less than 20 is denoted as A)
- pKd [4]: 9.74

Structure (SMILES): CCO[C@@H]1C[C@H]2C(=O)NC3(CCC3)C(=O)N(C)[C@@H](C(CC)CC)C(=O)N(C)[C@H](C(=O)N(C)C)CC(=O)N(C)[C@@H](C)C(=O)N[C@@H]([C@@H](C)CC)C(=O)N(C)CC(=O)N(C)[C@H]3C/C=C\CCN(C3=O)[C@@H](Cc3ccc(C(F)(F)F)cc3)C(=O)N(C)CC(=O)N[C@@H](CCc3ccc(Cl)c(Cl)c3)C(=O)N2C1 [PP1214]
- NRAS/KRAS (ratio of KD value for NRAS to KD value for KRAS) [1]: AA (a compound having 20 or more is denoted as AA)
- pIC50 [2]: 7.03
- HRAS/KRAS (ratio of KD value for HRAS to KD value for KRAS) [3]: A (a compound having 10 or more and less than 20 is denoted as A)
- pKd [4]: 9.47

Structure (SMILES): CCO[C@@H]1C[C@H]2C(=O)NC3(CCC3)C(=O)N(C)[C@@H](C(CC)CC)C(=O)N(C)[C@H](C(=O)N(C)C)CC(=O)N(C)[C@@H](CC)C(=O)N[C@@H]([C@@H](C)CC)C(=O)N(C)CC(=O)N(C)[C@H]3C/C=C\CCN(C3=O)[C@@H](Cc3ccc(C(F)(F)F)cc3)C(=O)N(C)CC(=O)N[C@@H](CCc3ccc(Cl)c(Cl)c3)C(=O)N2C1 [PP1215]
- NRAS/KRAS (ratio of KD value for NRAS to KD value for KRAS) [1]: AA (a compound having 20 or more is denoted as AA)
- pIC50 [2]: 7.48
- HRAS/KRAS (ratio of KD value for HRAS to KD value for KRAS) [3]: A (a compound having 10 or more and less than 20 is denoted as A)
- pKd [4]: 9.38

Structure (SMILES): CCC[C@H]1C(=O)N[C@@H]([C@@H](C)CC)C(=O)N(C)CC(=O)N(C)[C@H]2C/C=C\CCN(C2=O)[C@@H](Cc2ccc(C(F)(F)F)cc2)C(=O)N(C)CC(=O)N[C@@H](CCc2ccc(Cl)c(Cl)c2)C(=O)N2C[C@H](OCC)C[C@H]2C(=O)NC2(CCC2)C(=O)N(C)[C@@H](C(CC)CC)C(=O)N(C)[C@H](C(=O)N(C)C)CC(=O)N1C [PP1216]
- NRAS/KRAS (ratio of KD value for NRAS to KD value for KRAS) [1]: AA (a compound having 20 or more is denoted as AA)
- pIC50 [2]: 7.70
- HRAS/KRAS (ratio of KD value for HRAS to KD value for KRAS) [3]: A (a compound having 10 or more and less than 20 is denoted as A)
- pKd [4]: 9.41

Structure (SMILES): CCO[C@@H]1C[C@H]2C(=O)NC3(CCC3)C(=O)N(C)[C@@H](C(CC)CC)C(=O)N(C)[C@H](C(=O)N(C)C)CC(=O)N(C)[C@@H](CC(C)C)C(=O)N[C@@H]([C@@H](C)CC)C(=O)N(C)CC(=O)N(C)[C@H]3C/C=C\CCN(C3=O)[C@@H](Cc3ccc(C(F)(F)F)cc3)C(=O)N(C)CC(=O)N[C@@H](CCc3ccc(Cl)c(Cl)c3)C(=O)N2C1 [PP1217]
- NRAS/KRAS (ratio of KD value for NRAS to KD value for KRAS) [1]: AA (a compound having 20 or more is denoted as AA)
- pIC50 [2]: 7.75
- HRAS/KRAS (ratio of KD value for HRAS to KD value for KRAS) [3]: A (a compound having 10 or more and less than 20 is denoted as A)
- pKd [4]: 9.32

Structure (SMILES): CCCCCC[C@H]1C(=O)N[C@@H]([C@@H](C)CC)C(=O)N(C)CC(=O)N(C)[C@H]2C/C=C\CCN(C2=O)[C@@H](Cc2ccc(C(F)(F)F)cc2)C(=O)N(C)CC(=O)N[C@@H](CCc2ccc(Cl)c(Cl)c2)C(=O)N2C[C@H](OCC)C[C@H]2C(=O)NC2(CCC2)C(=O)N(C)[C@@H](C(CC)CC)C(=O)N(C)[C@H](C(=O)N(C)C)CC(=O)N1C [PP1218]
- NRAS/KRAS (ratio of KD value for NRAS to KD value for KRAS) [1]: AA (a compound having 20 or more is denoted as AA)
- pIC50 [2]: 7.17
- HRAS/KRAS (ratio of KD value for HRAS to KD value for KRAS) [3]: A (a compound having 10 or more and less than 20 is denoted as A)
- pKd [4]: 9.06

Structure (SMILES): CCO[C@@H]1C[C@H]2C(=O)NC3(CCC3)C(=O)N(C)[C@@H](C(CC)CC)C(=O)N(C)[C@H](C(=O)N(C)C)CC(=O)N(C)[C@@H](CC3CC3)C(=O)N[C@@H]([C@@H](C)CC)C(=O)N(C)CC(=O)N(C)[C@H]3C/C=C\CCN(C3=O)[C@@H](Cc3ccc(C(F)(F)F)cc3)C(=O)N(C)CC(=O)N[C@@H](CCc3ccc(Cl)c(Cl)c3)C(=O)N2C1 [PP1219]
- NRAS/KRAS (ratio of KD value for NRAS to KD value for KRAS) [1]: AA (a compound having 20 or more is denoted as AA)
- pIC50 [2]: 7.67
- HRAS/KRAS (ratio of KD value for HRAS to KD value for KRAS) [3]: A (a compound having 10 or more and less than 20 is denoted as A)
- pKd [4]: 9.46

Structure (SMILES): CCO[C@@H]1C[C@H]2C(=O)NC3(CCC3)C(=O)N(C)[C@@H](C(CC)CC)C(=O)N(C)[C@H](C(=O)N(C)C)CC(=O)N(C)[C@@H](CC3CCCC3)C(=O)N[C@@H]([C@@H](C)CC)C(=O)N(C)CC(=O)N(C)[C@H]3C/C=C\CCN(C3=O)[C@@H](Cc3ccc(C(F)(F)F)cc3)C(=O)N(C)CC(=O)N[C@@H](CCc3ccc(Cl)c(Cl)c3)C(=O)N2C1 [PP1220]
- NRAS/KRAS (ratio of KD value for NRAS to KD value for KRAS) [1]: AA (a compound having 20 or more is denoted as AA)
- pIC50 [2]: 7.65
- HRAS/KRAS (ratio of KD value for HRAS to KD value for KRAS) [3]: A (a compound having 10 or more and less than 20 is denoted as A)
- pKd [4]: 9.24

Structure (SMILES): CCO[C@@H]1C[C@H]2C(=O)NC3(CCC3)C(=O)N(C)[C@@H](C(CC)CC)C(=O)N(C)[C@H](C(=O)N(C)C)CC(=O)N(C)[C@@H](COC)C(=O)N[C@@H]([C@@H](C)CC)C(=O)N(C)CC(=O)N(C)[C@H]3C/C=C\CCN(C3=O)[C@@H](Cc3ccc(C(F)(F)F)cc3)C(=O)N(C)CC(=O)N[C@@H](CCc3ccc(Cl)c(Cl)c3)C(=O)N2C1 [PP1221]
- NRAS/KRAS (ratio of KD value for NRAS to KD value for KRAS) [1]: AA (a compound having 20 or more is denoted as AA)
- pIC50 [2]: 7.39
- HRAS/KRAS (ratio of KD value for HRAS to KD value for KRAS) [3]: A (a compound having 10 or more and less than 20 is denoted as A)
- pKd [4]: 9.40

Structure (SMILES): CCO[C@@H]1C[C@H]2C(=O)NC3(CCC3)C(=O)N(C)[C@@H](C(CC)CC)C(=O)N(C)[C@H](C(=O)N(C)C)CC(=O)N(C)[C@@H](C)C(=O)N[C@@H]([C@@H](C)CC)C(=O)N(C)CC(=O)N(C)[C@H]3C/C=C\CCN(C3=O)[C@@H](Cc3ccc(C(F)(F)F)cc3)C(=O)N(C)CC(=O)N[C@@H](CCc3ccc4sccc4c3)C(=O)N2C1 [PP1222]
- NRAS/KRAS (ratio of KD value for NRAS to KD value for KRAS) [1]: A (a compound having 10 or more and less than 20 is denoted as A)
- pIC50 [2]: 6.52
- HRAS/KRAS (ratio of KD value for HRAS to KD value for KRAS) [3]: A (a compound having 10 or more and less than 20 is denoted as A)
- pKd [4]: 8.92
